Reference: patent US7160888B2, “[1,8]naphthyridin-2-ones and related compounds for the treatment of schizophrenia” (Warner Lambert Company LLC, priority 2003, dated 2007)

Biological target: D2 receptor (Homo sapiens, UniProt P14416)
Sequence (P14416 whole entry): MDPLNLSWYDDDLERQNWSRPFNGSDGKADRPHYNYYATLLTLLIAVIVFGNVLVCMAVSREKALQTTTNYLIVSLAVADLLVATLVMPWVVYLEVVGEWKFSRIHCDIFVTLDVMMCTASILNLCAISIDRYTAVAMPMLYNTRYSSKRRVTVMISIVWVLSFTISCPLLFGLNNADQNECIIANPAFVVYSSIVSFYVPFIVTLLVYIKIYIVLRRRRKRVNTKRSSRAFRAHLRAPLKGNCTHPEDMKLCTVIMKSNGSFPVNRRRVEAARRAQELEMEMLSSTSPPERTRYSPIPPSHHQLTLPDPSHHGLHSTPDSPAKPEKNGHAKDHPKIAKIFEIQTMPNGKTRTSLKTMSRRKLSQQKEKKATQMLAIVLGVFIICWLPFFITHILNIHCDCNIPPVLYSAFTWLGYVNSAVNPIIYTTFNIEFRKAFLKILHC
Assay: [3H]Thymidine uptake assay for D2 intrinsic activity
Assay type: cell-based
Design: Emax: dose or concentration left out as unconfirmed
Conditions: Table 1; test compound 1 μM; 1 μM Quinpirole = 100% intrinsic activity
Compound `CC(=O)c1c(Cl)cccc1N1CCN(CCCCOc2ccc3c(n2)NC(=O)CC3)CC1` [Example A28, 7-{4-[4-(2-Acetyl-3-chloro-phenyl)-piperazin-1-yl]-butoxy}-3,4-dihydro-1H-[1,8]naphthyridin-2-one] has an Emax at 1 µM of 2%.
Compound `CC(=O)c1cccc(N2CCN(CCCCOc3ccc4c(n3)NC(=O)CC4)CC2)c1Cl` [Example A32, 7-{4-[4-(3-Acetyl-2-chloro-phenyl)-piperazin-1-yl]-butoxy}-3,4-dihydro-1H-[1,8]naphthyridin-2-one] has an Emax at 1 µM of 7%.
With `O=C1CCc2ccc(OCCCCN3CCN(c4cccc5c4CCCC5=O)CC3)nc2N1` [Example A58, 7-{4-[4-(5-Oxo-5,6,7,8-tetrahydro-naphthalen-1-yl)-piperazin-1-yl]-butoxy}-3,4-dihydro-1H-[1,8]naphthyridin-2-one] the Emax at 1 µM was 48%.
Compound `CC(=O)c1cccc(N2CCN(CCCCOc3ccc4ccc(=O)[nH]c4n3)CC2)c1Cl` [Example B6, 7-{4-[4-(3-Acetyl-2-chloro-phenyl)-piperazin-1-yl]-butoxy}-1H-[1,8]naphthyridin-2-one] has an Emax at 1 µM of 16%.
Work on `O=C1CCCc2c1cccc2N1CCN(CCCCOc2ccc3ccc(=O)[nH]c3n2)CC1` [Example B42, 7-{4-[4-(5-Oxo-5,6,7,8-tetrahydro-naphthalen-1-yl)-piperazin-1-yl]-butoxy}-1H-[1,8]naphthyridin-2-one] yielded an Emax at 1 µM of 37%.
Compound `Cc1cc(=O)[nH]c2nc(OCCCCN3CCN(c4cccc(Cl)c4Cl)CC3)ccc12` [Example D1, 7-{4-[4-(2,3-Dichloro-phenyl)-piperazin-1-yl]-butoxy}-4-methyl-1H-[1,8]naphthyridin-2-one] has an Emax at 1 µM of 31%.
With `Cc1nc(OCCCCN2CCN(c3cccc(C(C)C)n3)CC2)nc2[nH]c(=O)ccc12` [Example H6, 2-{4-[4-(6-Isopropyl-pyridin-2-yl)-piperazin-1-yl]-butoxy}-4-methyl-8H-pyrido[2,3-d]pyrimidin-7-one] the Emax at 1 µM was 42%.
`CCc1cccc(N2CCN(CCCCOc3nc(C)c4ccc(=O)[nH]c4n3)CC2)n1` [Example H7, 2-{4-[4-(6-Ethyl-pyridin-2-yl)-piperazin-1-yl]-butoxy}-4-methyl-8H-pyrido[2,3-d]pyrimidin-7-one] gave an Emax at 1 µM of 46%.
In the case of `Cc1nc(OCCCCN2CCN(c3cccc4ccc(F)cc34)CC2)nc2[nH]c(=O)ccc12` [Example H10, 2-{4-[4-(7-Fluoro-naphthalen-1-yl)-piperazin-1-yl]-butoxy}-4-methyl-8H-pyrido[2,3-d]pyrimidin-7-one], the Emax at 1 µM was 44%.
`COc1ccc2cccc(N3CCN(CCCCOc4nc(C)c5ccc(=O)[nH]c5n4)CC3)c2c1` [Example H11, 2-{4-[4-(7-Methoxy-naphthalen-1-yl)-piperazin-1-yl]-butoxy}-4-methyl-8H-pyrido[2,3-d]pyrimidin-7-one] showed an Emax at 1 µM of 23%.
Work on `Cc1nc(OCCCCN2CCN(c3cccc4ccccc34)CC2)nc2[nH]c(=O)ccc12` [Example H12, 4-Methyl-2-[4-(4-naphthalen-1-yl-piperazin-1-yl)-butoxy]-8H-pyrido[2,3-d]pyrimidin-7-one] yielded an Emax at 1 µM of 34%.
Compound `Cc1nc(OCCCCN2CCN(c3cccc4ccc(F)cc34)CC2)nc2c1ccc(=O)n2C` [Example H13, 2-{4-[4-(7-Fluoro-naphthalen-1-yl)-piperazin-1-yl]-butoxy}-4,8-dimethyl-8H-pyrido[2,3-d]pyrimidin-7-one] has an Emax at 1 µM of 36%.
Work on `COc1ccc2cccc(N3CCN(CCCCOc4nc(C)c5ccc(=O)n(C)c5n4)CC3)c2c1` [Example H14, 2-{4-[4-(7-Methoxy-naphthalen-1-yl)-piperazin-1-yl]-butoxy}-4,8-dimethyl-8H-pyrido[2,3-d]pyrimidin-7-one] yielded an Emax at 1 µM of 33%.
For `O=C1CCc2cnc(CCCCCN3CCN(c4cccc(Cl)c4Cl)CC3)cc2N1` [Example I1, 7-{5-[4-(2,3-Dichloro-phenyl)-piperazin-1-yl]-pentyl}-3,4-dihydro-1H-[1,6]naphthyridin-2-one], the Emax at 1 µM was 17%.
For `O=C1CCc2cnc(OCCCCN3CCN(c4cccc5c4CCCC5)CC3)cc2N1` [Example I2, 7-{4-[4-(5,6,7,8-Tetrahydro-naphthalen-1-yl)-piperazin-1-yl]-butoxy}-3,4-dihydro-1H-[1,6]naphthyridin-2-one], the Emax at 1 µM was 37%.
With `O=C1CCc2cnc(OCCCCN3CCN(c4cccc5ccccc45)CC3)cc2N1` [Example I3, 7-[4-(4-Naphthalen-1-yl-piperazin-1-yl)-butoxy]-3,4-dihydro-1H-[1,6]naphthyridin-2-one] the Emax at 1 µM was 33%.
`O=C1CCc2cnc(OCCCCN3CCN(c4cccc5c4CCC5)CC3)cc2N1` [Example I5, 7-[4-(4-Indan-4-yl-piperazin-1-yl)-butoxy]-3,4-dihydro-1H-[1,6]naphthyridin-2-one] showed an Emax at 1 µM of 23%.
Compound `O=C1CCc2cnc(OCCCCN3CCN(c4cccc5ccccc45)CC3)c(Br)c2N1` [Example I7, 8-Bromo-7-[4-(4-naphthalen-1-yl-piperazin-1-yl)-butoxy]-3,4-dihydro-1H-[1,6]naphthyridin-2-one] has an Emax at 1 µM of 37%.
Work on `O=C1CCc2cnc(OCCCCN3CCN(c4cccc(Cl)c4Cl)CC3)c(Br)c2N1` [Example I8, 8-Bromo-7-{4-[4-(2,3-dichloro-phenyl)-piperazin-1-yl]-butoxy}-3,4-dihydro-1H-[1,6]naphthyridin-2-one] yielded an Emax at 1 µM of 25%.
Compound `O=C1CCc2cnc(OCCCCN3CCN(c4cccc(Cl)c4Cl)CC3)c(Cl)c2N1` [Example I9, 8-Chloro-7-{4-[4-(2,3-dichloro-phenyl)-piperazin-1-yl]-butoxy}-3,4-dihydro-1H-[1,6]naphthyridin-2-one] has an Emax at 1 µM of 19%.
In the case of `O=C1CCc2cnc(OCCCCN3CCN(c4cccc5ccccc45)CC3)c(Cl)c2N1` [Example I10, 8-Chloro-7-[4-(4-naphthalen-1-yl-piperazin-1-yl)-butoxy]-3,4-dihydro-1H-[1,6]naphthyridin-2-one], the Emax at 1 µM was 21%.
Compound `COC(=O)c1c(OCCCCN2CCN(c3cccc4ccccc34)CC2)ncc2c1NC(=O)CC2` [Example I11, 7-[4-(4-Naphthalen-1-yl-piperazin-1-yl)-butoxy]-2-oxo-1,2,3,4-tetrahydro-[1,6]naphthyridine-8-carboxylic acid methyl ester] has an Emax at 1 µM of 19%.
In the case of `O=c1ccc2cnc(OCCCCN3CCN(c4cccc5c4CCCC5)CC3)cc2[nH]1` [Example I14, 7-{4-[4-(5,6,7,8-Tetrahydro-naphthalen-1-yl)-piperazin-1-yl]-butoxy}-1H-[1,6]naphthyridin-2-one], the Emax at 1 µM was 24%.
In the case of `O=c1ccc2cnc(OCCCCN3CCN(c4cccc5c4CCC5)CC3)cc2[nH]1` [Example I15, 7-[4-(4-Indan-4-yl-piperazin-1-yl)-butoxy]-1H-[1,6]naphthyridin-2-one], the Emax at 1 µM was 20%.
`O=c1ccc2cnc(OCCCCN3CCN(c4cccc5ccccc45)CC3)cc2[nH]1` [Example I16, 7-[4-(4-Naphthalen-1-yl-piperazin-1-yl)-butoxy]-1H-[1,6]naphthyridin-2-one] gave an Emax at 1 µM of 27%.
With `O=c1ccc2cnc(OCCCCN3CCN(c4cccc5ccc(F)cc45)CC3)cc2[nH]1` [Example I17, 7-{4-[4-(7-Fluoro-naphthalen-1-yl)-piperazin-1-yl]-butoxy}-1H-[1,6]naphthyridin-2-one] the Emax at 1 µM was 32%.
`O=c1ccc2cnc(NCCCCN3CCN(c4cccc(Cl)c4Cl)CC3)cc2[nH]1` [Example I18, 7-{4-[4-(2,3-Dichloro-phenyl)-piperazin-1-yl]-butylamino}-1H-[1,6]naphthyridin-2-one] showed an Emax at 1 µM of 54%.
In the case of `CC1(C)OC(=O)Nc2cc(CCCCCN3CCN(c4cccc(Cl)c4Cl)CC3)ncc21` [Example I19, 7-{5-[4-(2,3-Dichloro-phenyl)-piperazin-1-yl]-pentyl}-4,4-dimethyl-1,4-dihydro-pyrido[4,3-d][1,3]oxazin-2-one], the Emax at 1 µM was 22%.

Same assay, conditions: Table 2; test compound 1 μM; 1 μM Quinpirole = 100% intrinsic activity
Compound `O=C1CCc2cnc(OCCCCN3CCN(c4cccc5c4OCCO5)CC3)cc2N1` [Example H5′, 7-{4-[4-(2,3-Dihydro-benzo[1,4]dioxin-5-yl)-piperazin-1-yl]-butoxy}-3,4-dihydro-1H-[1,6]naphthyridin-2-one] has an Emax at 1 µM of 14%.
Work on `O=c1ccc2cnc(OCCCCN3CCN(c4cccc5c4OCC5)CC3)cc2[nH]1` [Example H6′, 7-{4-[4-(2,3-Dihydro-benzofuran-7-yl)-piperazin-1-yl]-butoxy}-1H-[1,6]naphthyridin-2-one] yielded an Emax at 1 µM of 21%.
With `O=c1ccc2cnc(OCCCCN3CCN(c4cccc5c4OCCO5)CC3)cc2[nH]1` [Example H7′, 7-{4-[4-(2,3-Dihydro-benzo[1,4]dioxin-5-yl)-piperazin-1-yl]-butoxy}-1H-[1,6]naphthyridin-2-one] the Emax at 1 µM was 17%.
For `O=c1ccc2cnc(OCCCCN3CCN(c4cccc5c4OCCC5)CC3)cc2[nH]1` [Example H8′, 7-[4-(4-Chroman-8-yl-piperazin-1-yl)-butoxy]-1H-[1,6]naphthyridin-2-one], the Emax at 1 µM was 32%.
`O=c1ccc2cnc(OCCCCN3CCN(c4cccc5c4OC(F)(F)O5)CC3)cc2[nH]1` [Example H9′, 7-{4-[4-(2,2-Difluoro-benzo[1,3]dioxol-4-yl)-piperazin-1-yl]-butoxy}-1H-[1,6]naphthyridin-2-one] gave an Emax at 1 µM of 31%.

Same assay, conditions: read-out: D2 Intrinsic Activity (%)
In the case of `O=C1CCc2cnc(OCCCCN3CCN(c4cccc5ccc(F)cc45)CC3)cc2N1` [Example I6, 7-{4-[4-(7-Fluoro-naphthalen-1-yl)-piperazin-1-yl]-butoxy}-3,4-dihydro-1H-[1,6]naphthyridin-2-one], the Emax was 24%.

System: not given
Assay: not given
Conditions: not given
`CCOc1cccc(N2CCN(CCCCOc3ccc4c(n3)NC(=O)CC4)CC2)c1Cl` [Example A21, 7-{4-[4-(2-Chloro-3-ethoxy-phenyl)-piperazin-1-yl]-butoxy}-3,4-dihydro-1H-[1,8]naphthyridin-2-one] gave a melting point of 110 to 112 °C.
Compound `CC(=O)c1c(Cl)cccc1N1CCN(CCCCOc2ccc3c(n2)NC(=O)CC3)CC1` [Example A28, 7-{4-[4-(2-Acetyl-3-chloro-phenyl)-piperazin-1-yl]-butoxy}-3,4-dihydro-1H-[1,8]naphthyridin-2-one] has a melting point of 115 °C.
With `CC(=O)c1cccc(N2CCN(CCCCOc3ccc4c(n3)NC(=O)CC4)CC2)c1Cl` [Example A32, 7-{4-[4-(3-Acetyl-2-chloro-phenyl)-piperazin-1-yl]-butoxy}-3,4-dihydro-1H-[1,8]naphthyridin-2-one] the melting point was 138 to 139 °C.
With `O=C1CCc2ccc(OCCCCN3CCN(c4cccc5c4CCCC5=O)CC3)nc2N1` [Example A58, 7-{4-[4-(5-Oxo-5,6,7,8-tetrahydro-naphthalen-1-yl)-piperazin-1-yl]-butoxy}-3,4-dihydro-1H-[1,8]naphthyridin-2-one] the melting point was 169 to 170 °C.
Work on `CC(=O)c1cccc(N2CCN(CCCCOc3ccc4ccc(=O)[nH]c4n3)CC2)c1Cl` [Example B6, 7-{4-[4-(3-Acetyl-2-chloro-phenyl)-piperazin-1-yl]-butoxy}-1H-[1,8]naphthyridin-2-one] yielded a melting point of 108 to 110 °C.
Work on `O=C1CCCc2c1cccc2N1CCN(CCCCOc2ccc3ccc(=O)[nH]c3n2)CC1` [Example B42, 7-{4-[4-(5-Oxo-5,6,7,8-tetrahydro-naphthalen-1-yl)-piperazin-1-yl]-butoxy}-1H-[1,8]naphthyridin-2-one] yielded a melting point of 158 to 160 °C.
`O=c1ccc2ccc(CCCCCN3CCN(c4cccc(Cl)c4Cl)CC3)nc2[nH]1` [Example C20, 7-{5-[4-(2,3-Dichloro-phenyl)-piperazin-1-yl]-pentyl}-1H-[1,8]naphthyridin-2-one] showed a melting point of 176 to 178 °C.
Work on `Cc1cc(=O)[nH]c2nc(OCCCCN3CCN(c4cccc(Cl)c4Cl)CC3)ccc12` [Example D1, 7-{4-[4-(2,3-Dichloro-phenyl)-piperazin-1-yl]-butoxy}-4-methyl-1H-[1,8]naphthyridin-2-one] yielded a melting point of 181 to 182 °C.
